From US20240109917A1 (ACTELION PHARMACEUTICALS LTD, priority 2020, published 2024)
Read-outs that look alike come from different tables or passages of the source.

Columns and labels:
PDGFRβ = PDGFRβ (Rattus norvegicus (Rat), UniProt Q05030); assay: PDGFRβ Cellular Assay (PDGFRb P-Y751 HTRF in A10 cells stimulated with PDGF-BB); assay type: cell-based
Outline: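 Phospho-Y751 PDGFRβ was measured by HTRF in lysates of A10 rat cells. Cells received compound for 3 hours before PDGF-BB stimulation (100 ng/mL working stock).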

[1] = biological target: Tb-labeled inactive PDGFRβ (Homo sapiens (Human), UniProt P09619); assay: PDGFRβ LanthaScreen Assay; assay type: binding; conditions: read-out: PDGFR Lantha IC50
Tb-labeled inactive PDGFRβ, sequence (P09619 33-1106): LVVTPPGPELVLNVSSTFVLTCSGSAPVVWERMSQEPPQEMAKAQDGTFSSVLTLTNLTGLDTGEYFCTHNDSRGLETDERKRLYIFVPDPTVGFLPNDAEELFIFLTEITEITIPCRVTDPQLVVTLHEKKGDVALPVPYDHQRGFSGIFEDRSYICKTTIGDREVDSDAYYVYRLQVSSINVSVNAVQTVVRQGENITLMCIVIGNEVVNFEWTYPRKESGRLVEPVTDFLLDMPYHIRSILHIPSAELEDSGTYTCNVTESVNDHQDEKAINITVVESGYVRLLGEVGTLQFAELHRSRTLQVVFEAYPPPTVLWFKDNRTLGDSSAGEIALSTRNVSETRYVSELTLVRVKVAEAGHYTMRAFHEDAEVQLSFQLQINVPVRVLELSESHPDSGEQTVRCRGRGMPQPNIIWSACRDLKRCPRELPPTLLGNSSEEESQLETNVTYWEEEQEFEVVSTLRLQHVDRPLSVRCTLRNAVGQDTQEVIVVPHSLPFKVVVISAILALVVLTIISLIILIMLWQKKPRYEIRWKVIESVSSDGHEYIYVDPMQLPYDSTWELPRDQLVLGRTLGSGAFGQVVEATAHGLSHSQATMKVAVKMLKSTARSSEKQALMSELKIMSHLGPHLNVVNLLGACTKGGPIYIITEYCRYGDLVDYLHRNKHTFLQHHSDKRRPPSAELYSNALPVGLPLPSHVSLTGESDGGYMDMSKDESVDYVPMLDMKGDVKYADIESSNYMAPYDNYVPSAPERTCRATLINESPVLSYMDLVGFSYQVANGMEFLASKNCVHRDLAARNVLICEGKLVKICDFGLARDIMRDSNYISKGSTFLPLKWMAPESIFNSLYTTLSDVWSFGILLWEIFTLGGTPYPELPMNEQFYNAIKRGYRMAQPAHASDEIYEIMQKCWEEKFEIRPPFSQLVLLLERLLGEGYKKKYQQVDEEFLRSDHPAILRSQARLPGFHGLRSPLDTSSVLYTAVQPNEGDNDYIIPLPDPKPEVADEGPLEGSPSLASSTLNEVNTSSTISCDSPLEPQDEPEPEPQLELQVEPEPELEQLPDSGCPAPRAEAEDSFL

VEGFR2, unphosphorylated = VEGFR2, unphosphorylated (Homo sapiens (Human), UniProt P35968); assay: VEGFR ADP GLO Assay; assay type: biochemical
VEGFR2, unphosphorylated, sequence (P35968 20-1356): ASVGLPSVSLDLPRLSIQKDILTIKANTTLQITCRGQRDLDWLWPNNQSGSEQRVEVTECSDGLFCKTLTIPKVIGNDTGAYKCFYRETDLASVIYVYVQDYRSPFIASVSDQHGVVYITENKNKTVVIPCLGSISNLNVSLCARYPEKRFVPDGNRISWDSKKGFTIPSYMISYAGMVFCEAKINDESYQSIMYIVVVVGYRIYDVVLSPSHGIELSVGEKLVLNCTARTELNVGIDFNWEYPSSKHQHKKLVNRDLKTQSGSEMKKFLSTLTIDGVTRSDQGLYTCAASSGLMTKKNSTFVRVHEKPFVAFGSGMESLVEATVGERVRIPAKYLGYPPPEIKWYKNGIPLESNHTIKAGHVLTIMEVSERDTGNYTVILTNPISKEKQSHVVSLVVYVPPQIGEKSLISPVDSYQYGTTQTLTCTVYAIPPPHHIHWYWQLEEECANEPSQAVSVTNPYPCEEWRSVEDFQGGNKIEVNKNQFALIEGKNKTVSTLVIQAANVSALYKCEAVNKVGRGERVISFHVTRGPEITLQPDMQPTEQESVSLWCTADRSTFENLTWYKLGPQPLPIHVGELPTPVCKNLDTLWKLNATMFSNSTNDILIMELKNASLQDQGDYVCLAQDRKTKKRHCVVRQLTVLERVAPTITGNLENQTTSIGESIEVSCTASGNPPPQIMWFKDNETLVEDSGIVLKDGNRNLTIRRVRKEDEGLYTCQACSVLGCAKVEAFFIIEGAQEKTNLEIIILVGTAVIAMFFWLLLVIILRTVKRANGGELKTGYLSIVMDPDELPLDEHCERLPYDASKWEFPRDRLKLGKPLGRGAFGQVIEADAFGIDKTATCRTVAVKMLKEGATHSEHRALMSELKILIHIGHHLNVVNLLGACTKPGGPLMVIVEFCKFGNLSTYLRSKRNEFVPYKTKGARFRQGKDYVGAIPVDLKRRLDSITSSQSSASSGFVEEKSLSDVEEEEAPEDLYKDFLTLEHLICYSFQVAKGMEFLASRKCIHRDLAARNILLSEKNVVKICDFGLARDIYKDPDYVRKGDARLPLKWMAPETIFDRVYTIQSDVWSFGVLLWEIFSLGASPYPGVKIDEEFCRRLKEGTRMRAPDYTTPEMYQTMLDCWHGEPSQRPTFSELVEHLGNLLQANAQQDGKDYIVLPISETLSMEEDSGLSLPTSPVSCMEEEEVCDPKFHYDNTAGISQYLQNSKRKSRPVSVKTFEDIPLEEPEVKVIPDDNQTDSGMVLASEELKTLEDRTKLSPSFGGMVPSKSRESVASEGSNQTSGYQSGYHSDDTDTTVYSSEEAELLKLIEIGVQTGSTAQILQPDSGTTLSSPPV

PDGFRβ, sequence (Q05030 32-1097): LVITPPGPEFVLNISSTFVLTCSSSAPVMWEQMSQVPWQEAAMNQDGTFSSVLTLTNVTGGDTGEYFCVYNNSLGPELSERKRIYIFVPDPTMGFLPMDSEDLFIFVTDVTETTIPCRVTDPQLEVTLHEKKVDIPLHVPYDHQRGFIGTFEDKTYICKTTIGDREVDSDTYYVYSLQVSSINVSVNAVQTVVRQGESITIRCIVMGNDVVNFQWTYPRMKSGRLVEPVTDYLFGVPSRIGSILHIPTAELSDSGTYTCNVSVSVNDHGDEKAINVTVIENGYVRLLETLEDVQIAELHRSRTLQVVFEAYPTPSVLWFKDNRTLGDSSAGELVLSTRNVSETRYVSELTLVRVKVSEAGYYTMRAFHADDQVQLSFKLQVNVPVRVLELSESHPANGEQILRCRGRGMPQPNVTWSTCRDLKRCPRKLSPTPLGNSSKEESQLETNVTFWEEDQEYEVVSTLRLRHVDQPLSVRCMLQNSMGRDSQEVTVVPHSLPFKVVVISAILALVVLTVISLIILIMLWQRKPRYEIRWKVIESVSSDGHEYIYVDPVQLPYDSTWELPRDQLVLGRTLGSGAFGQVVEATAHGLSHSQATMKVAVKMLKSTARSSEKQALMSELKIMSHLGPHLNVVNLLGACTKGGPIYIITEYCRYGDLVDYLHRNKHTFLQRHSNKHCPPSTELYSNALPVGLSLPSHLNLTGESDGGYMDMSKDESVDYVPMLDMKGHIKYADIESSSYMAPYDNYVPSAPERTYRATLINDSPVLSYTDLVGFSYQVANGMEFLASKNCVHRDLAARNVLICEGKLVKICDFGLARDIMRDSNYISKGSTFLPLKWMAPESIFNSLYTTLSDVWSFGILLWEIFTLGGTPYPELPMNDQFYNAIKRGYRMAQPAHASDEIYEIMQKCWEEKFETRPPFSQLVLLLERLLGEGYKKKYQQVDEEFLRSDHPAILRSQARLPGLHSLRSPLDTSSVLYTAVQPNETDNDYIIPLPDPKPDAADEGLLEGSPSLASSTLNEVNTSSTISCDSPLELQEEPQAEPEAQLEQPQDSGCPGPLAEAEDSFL

| Structure (SMILES) | IC50 (PDGFRβ; read-out: PDGFR Cellular IC50) | IC50 [1] | IC50 (VEGFR2, unphosphorylated) | IC50 (PDGFRβ; PDGFR Cellular IC50) |
| --- | --- | --- | --- | --- |
| COCCn1cc(-c2cn3ncc(C(=O)Nc4cc(NC(=O)CN5CCCCC5)cnc4C)c3s2)cn1 [Example 338, 2-(1-(2-methoxyethyl)-1H-pyrazol-4-yl)-N-(2-methyl-5-(2-(piperidin-1-yl)acetamido)pyridin-3-yl)pyrazolo[5,1-b]thiazole-7-carboxamide] | 4.6 nM | 4.8 nM | > 7500 nM | – |
| COCCn1cc(-c2cn3ncc(C(=O)Nc4cc(NC(=O)CN5CCCCCC5)cnc4C)c3s2)cn1 [Example 339, N-(5-(2-(azepan-1-yl)acetamido)-2-methylpyridin-3-yl)-2-(1-(2-methoxyethyl)-1H-pyrazol-4-yl)pyrazolo[5,1-b]thiazole-7-carboxamide] | 2.6 nM | 3 nM | > 7500 nM | – |
| COCCn1cc(-c2cn3ncc(C(=O)Nc4cc(NC(=O)CN5C6CCC5CC6)cnc4C)c3s2)cn1 [Example 340, N-(5-(2-(7-azabicyclo[2.2.1]heptan-7-yl)acetamido)-2-methylpyridin-3-yl)-2-(1-(2-methoxyethyl)-1H-pyrazol-4-yl)pyrazolo[5,1-b]thiazole-7-carboxamide] | 6.5 nM | 7.5 nM | > 7500 nM | – |
| COCCn1cc(-c2cn3ncc(C(=O)Nc4cc(NC(=O)CN5CCC(C6CC6)C5)cnc4C)c3s2)cn1 (stereo not drawn) [Example 341, N-(5-(2-(3-cyclopropylpyrrolidin-1-yl)acetamido)-2-methylpyridin-3-yl)-2-(1-(2-methoxyethyl)-1H-pyrazol-4-yl)pyrazolo[5,1-b]thiazole-7-carboxamide] | 5.1 nM | 4.6 nM | > 7500 nM | – |
| COCCn1cc(-c2cn3ncc(C(=O)Nc4cc(NC(=O)C5CN(C(C)C)C5)cnc4C)c3s2)cn1 [Example 342, N-(5-(1-isopropylazetidine-3-carboxamido)-2-methylpyridin-3-yl)-2-(1-(2-methoxyethyl)-1H-pyrazol-4-yl)pyrazolo[5,1-b]thiazole-7-carboxamide] | 339 nM | 15.9 nM | > 7500 nM | – |
| COCCn1cc(-c2cn3ncc(C(=O)Nc4cc(NC(=O)[C@@H]5CCCN5C(C)C)cnc4C)c3s2)cn1 [Example 343, (S)—N-(5-(1-isopropylpyrrolidine-2-carboxamido)-2-methylpyridin-3-yl)-2-(1-(2-methoxyethyl)-1H-pyrazol-4-yl)pyrazolo[5,1-b]thiazole-7-carboxamide] | 47.9 nM | 84.8 nM | > 7500 nM | – |
| COCCn1cc(-c2cn3ncc(C(=O)Nc4cc(NC(=O)[C@H]5CCCN5C(C)C)cnc4C)c3s2)cn1 [Example 344, (R)—N-(5-(1-isopropylpyrrolidine-2-carboxamido)-2-methylpyridin-3-yl)-2-(1-(2-methoxyethyl)-1H-pyrazol-4-yl)pyrazolo[5,1-b]thiazole-7-carboxamide] | 59.2 nM | 67.5 nM | > 7500 nM | – |
| COCCn1cc(-c2cn3ncc(C(=O)Nc4cc(NC(=O)C5CCN(C(C)C)C5)cnc4C)c3s2)cn1 (stereo not drawn) [Example 345, N-(5-(1-isopropylpyrrolidine-3-carboxamido)-2-methylpyridin-3-yl)-2-(1-(2-methoxyethyl)-1H-pyrazol-4-yl)pyrazolo[5,1-b]thiazole-7-carboxamide] | 222 nM | 56.9 nM | > 7500 nM | – |
| Cc1ncc(NC(=O)[C@@H]2CCCN2C(C)C)cc1NC(=O)c1cnn2cc(-c3cnn4c3OCCC4)sc12 [Example 346, (S)-2-(6,7-dihydro-5H-pyrazolo[5,1-b][1,3]oxazin-3-yl)-N-(5-(1-isopropylpyrrolidine-2-carboxamido)-2-methylpyridin-3-yl)pyrazolo[5,1-b]thiazole-7-carboxamide] | 6.8 nM | 6.5 nM | > 7500 nM | – |
| Cc1ncc(NC(=O)[C@H]2CCCN2C(C)C)cc1NC(=O)c1cnn2cc(-c3cnn4c3OCCC4)sc12 [Example 347, (R)-2-(6,7-dihydro-5H-pyrazolo[5,1-b][1,3]oxazin-3-yl)-N-(5-(1-isopropylpyrrolidine-2-carboxamido)-2-methylpyridin-3-yl)pyrazolo[5,1-b]thiazole-7-carboxamide] | 6 nM | 6 nM | > 7500 nM | – |
| Cc1ncc(NC(=O)C2CN(C(C)C)C2)cc1NC(=O)c1cnn2cc(-c3cnn4c3OCCC4)sc12 [Example 348, 2-(6,7-dihydro-5H-pyrazolo[5,1-b][1,3]oxazin-3-yl)-N-(5-(1-isopropylazetidine-3-carboxamido)-2-methylpyridin-3-yl)pyrazolo[5,1-b]thiazole-7-carboxamide] | 195 nM | 4 nM | > 7500 nM | – |
| Cc1ncc(NC(=O)[C@@H]2CCCN2C)cc1NC(=O)c1cnn2cc(-c3cnn4c3OCCC4)sc12 [Example 349, (S)-2-(6,7-dihydro-5H-pyrazolo[5,1-b][1,3]oxazin-3-yl)-N-(2-methyl-5-(1-methylpyrrolidine-2-carboxamido)pyridin-3-yl)pyrazolo[5,1-b]thiazole-7-carboxamide] | 9.1 nM | 8.7 nM | > 7500 nM | – |
| Cc1ncc(NC(=O)C2CCN(C(C)C)C2)cc1NC(=O)c1cnn2cc(-c3cnn4c3OCCC4)sc12 (stereo not drawn) [Example 350, 2-(6,7-dihydro-5H-pyrazolo[5,1-b][1,3]oxazin-3-yl)-N-(5-(1-isopropylpyrrolidine-3-carboxamido)-2-methylpyridin-3-yl)pyrazolo[5,1-b]thiazole-7-carboxamide] | 73.3 nM | 4.1 nM | 6350 nM | – |
| Cc1ncc(NC(=O)C[C@H]2CCCN2C(C)C)cc1NC(=O)c1cnn2cc(-c3cnn4c3OCCC4)sc12 [Example 351, (R)-2-(6,7-dihydro-5H-pyrazolo[5,1-b][1,3]oxazin-3-yl)-N-(5-(2-(1-isopropylpyrrolidin-2-yl)acetamido)-2-methylpyridin-3-yl)pyrazolo[5,1-b]thiazole-7-carboxamide] | – | 3.1 nM | > 7500 nM | 17.7 nM |
| Cc1ncc(NC(=O)CN2CCC[C@@H]2C)cc1NC(=O)c1cnn2cc(-c3ccnc(N4CCOCC4)c3)sc12 [Example 352, (S)—N-(2-methyl-5-(2-(2-methylpyrrolidin-1-yl)acetamido)pyridin-3-yl)-2-(2-morpholinopyridin-4-yl)pyrazolo[5,1-b]thiazole-7-carboxamide] | 2.8 nM | 4.7 nM | > 7500 nM | – |
| Cc1ncc(NC(=O)CN2CCC23CCC3)cc1NC(=O)c1cnn2cc(-c3ccnc(N4CCOCC4)c3)sc12 [Example 353, N-(5-(2-(1-azaspiro[3.3]heptan-1-yl)acetamido)-2-methylpyridin-3-yl)-2-(2-morpholinopyridin-4-yl)pyrazolo[5,1-b]thiazole-7-carboxamide] | 1.6 nM | 1.4 nM | > 7500 nM | – |
| Cc1ncc(NC(=O)C2CN(C(C)C)C2)cc1NC(=O)c1cnn2cc(-c3cn(C)nc3C)sc12 [Example 354, 2-(1,3-dimethyl-1H-pyrazol-4-yl)-N-(5-(1-isopropylazetidine-3-carboxamido)-2-methylpyridin-3-yl)pyrazolo[5,1-b]thiazole-7-carboxamide] | 78.8 nM | 4.3 nM | > 7500 nM | – |
| Cc1ncc(NC(=O)C2CCN(C(C)C)C2)cc1NC(=O)c1cnn2cc(-c3cn(C)nc3C)sc12 (stereo not drawn) [Example 355, 2-(1,3-dimethyl-1H-pyrazol-4-yl)-N-(5-(1-isopropylpyrrolidine-3-carboxamido)-2-methylpyridin-3-yl)pyrazolo[5,1-b]thiazole-7-carboxamide] | 50.3 nM | 11.3 nM | > 7500 nM | – |
